The values below come from paper PMC11855086, “Synthesis, Antimicrobial Activity, and Tyrosinase Inhibition by Multifunctional 3,4-Dihydroxy-Phenyl Peptidomimetics” (International Journal of Molecular Sciences, 2025).

Values after ≈ are worked out from the molar mass of the structure shown. Bounds are passed on as bounds.

One assay has as its system E. coli R3 (ATCC 11775). Briefly: MIC and MBC, microtiter plate technique. In kind it is cell-based. As to conditions: Escherichia coli; for MIC: ATCC11775, 24 h, resazurin; for MBC: ATCC11775, TTC.
A further assay deals with E. coli K12 (ATCC 25404). Briefly: MIC and MBC, microtiter plate technique. In kind it is cell-based. As to conditions: Escherichia coli; for MBC: ATCC25404; for MIC: ATCC25404, 24 h.
A further assay has as its system E. coli R4 (ATCC 39543). Briefly: MIC and MBC, microtiter plate technique. The format is cell-based. As to conditions: Escherichia coli; for MBC: ATCC39543; for MIC: ATCC39543, 24 h.
The test system of a further assay is E. coli R2 (ATCC 39544). The experiment in a line: MIC and MBC, microtiter plate technique. The format is cell-based. As to conditions: Escherichia coli; for MBC: ATCC39544; for MIC: ATCC39544, 24 h.
The next assay relates to E. cloacae (ATCC 49141). Briefly: MIC and MBC, microtiter plate technique. In kind it is cell-based. As to conditions: ATCC49141, Enterobacter cloacae; for MIC: 24 h, resazurin; for MBC: TTC.
In assay [1] the target is T1, mushroom tyrosinase (mTYR) (Agaricus bisporus, UniProt C7FF04).
T1 construct: purchased Sigma-Aldrich (Poznan, Poland); host or cells: Agaricus bisporus (extracted natural enzyme)
The experiment in a line: Tyrosinase assay with L-DOPA as substrate (absorbance at 475 nm). In kind it is biochemical. As to conditions: 100 µM compound. The text has this:
Tyrosinase (Tyr) extracted from Agaricus bisporus (mushroom tyrosinase, mTYR) is commonly used as a model enzyme for human Tyr due to its high purity, stability, and commercial availability. It is frequently used in the selection of TYR inhibitors. Following established literature protocols, L-tyrosine and L-DOPA, which serve as substrates for monophenol and diphenol oxidation, respectively, were used to assess the tyrosinase inhibitory activity of synthesized target compounds [21].
Tyrosinase (Tyr) activity was measured using L-DOPA as substrate and phosphate buffer solution (PBS) as blank control, following the method described by Min He et al. (2022) with an ultraviolet spectrophotometer (Carry-300, Agilent Life Sciences and Chemical Analysis, Santa Clara, CA, USA). […] Before the experiment, 2.9 mL of PBS and 0.1 mL of DMSO were used to account for the influence of the background solvent. The inhibitor solution (100 µL), substrate solution (2.8 mL), and Tyr solution (100 µL) were then added to a quartz colorimetric cuvette. After a one-minute mixing period, the absorption spectra of the mixture were continuously recorded at 475 nm using the UV spectrophotometer (Carry-300) for 5 min over a period of every 30 s. The tyrosinase inhibition rate was calculated as follows:Relative enzyme activity (%) = (A1 − A2)/A1 × 100
A1 = Absorbance of L-DOPA and inhibitor.
A2 = Absorbance of L-DOPA, inhibitor, and tyrosinase.

For assay [2], the system named is A. baumannii (ATCC 17978). The experiment in a line: MIC and MBC, microtiter plate technique. In kind it is cell-based. As to conditions: ATCC17978, Acinetobacter baumannii; for MIC: 24 h, resazurin; for MBC: TTC.
Assay [3] has as its system P. aeruginosa (ATCC 15442). The experiment in a line: MIC and MBC, microtiter plate technique. The format is cell-based. As to conditions: ATCC15442, Pseudomonas aeruginosa; for MIC: 24 h, resazurin; for MBC: TTC.
For another assay, the system named is S. aureus (ATCC 23235). The experiment in a line: microbe, parasite or virus in culture. As to conditions: Staphylococcus aureus; for MBC: ATCC23235; for MIC: ATCC23235, 24 h. In kind it is cell-based.

T1 sequence (C7FF04 1-392 limits assumed): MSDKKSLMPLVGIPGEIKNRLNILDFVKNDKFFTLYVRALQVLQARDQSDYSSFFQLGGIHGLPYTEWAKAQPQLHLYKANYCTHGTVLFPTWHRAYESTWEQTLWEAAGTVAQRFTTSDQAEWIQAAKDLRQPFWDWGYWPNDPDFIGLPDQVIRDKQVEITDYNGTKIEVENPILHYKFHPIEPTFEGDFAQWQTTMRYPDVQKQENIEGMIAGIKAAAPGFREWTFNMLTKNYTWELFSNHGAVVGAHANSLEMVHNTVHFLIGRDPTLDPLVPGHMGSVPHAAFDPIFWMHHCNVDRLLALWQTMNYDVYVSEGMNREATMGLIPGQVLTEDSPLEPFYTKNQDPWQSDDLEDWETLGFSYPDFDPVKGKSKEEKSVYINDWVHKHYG

`COc1ccc(CNC(=O)C(c2ccc(O)c(O)c2)N(Cc2ccc(OC)cc2)C(=O)Cc2ccccc2)cc1` (stereo not shown) [Compound 5b, 2-(3,4-dihydroxyphenyl)-N-(4-methoxybenzyl)-2-(N-(4-methoxybenzyl)-2-phenylacetamido)-acetamide]: the MIC is 1.61 µM (≈ 0.87 µg/mL) against E. coli R3 (ATCC 11775); 0.45 µM (≈ 0.243 µg/mL) in the assay with E. coli K12 (ATCC 25404); 2 µM (≈ 1.08 µg/mL) in the assay with E. coli R4 (ATCC 39543); 0.98 µM (≈ 0.53 µg/mL) against E. coli R2 (ATCC 39544); 1 µM (≈ 0.541 µg/mL) with E. cloacae (ATCC 49141); 0.83 µM (≈ 0.449 µg/mL) in assay [2]. The MIC came to 0.96 µM (≈ 0.519 µg/mL) in assay [3] and 0.9 µM (≈ 0.487 µg/mL) in the assay on S. aureus (ATCC 23235). For the same compound, the MBC was 1.7 µM (≈ 0.919 µg/mL) in the assay with E. coli R3 (ATCC 11775); 0.61 µM (≈ 0.33 µg/mL) against E. coli K12 (ATCC 25404); 2.21 µM (≈ 1.19 µg/mL) against E. coli R4 (ATCC 39543); 1.03 µM (≈ 0.557 µg/mL) in the assay with E. coli R2 (ATCC 39544); 1.05 µM (≈ 0.568 µg/mL) in the assay on E. cloacae (ATCC 49141); 0.9 µM (≈ 0.487 µg/mL) in [2]. The values for the MBC (in assay [3]; with S. aureus (ATCC 23235)) were 0.99 µM (≈ 0.535 µg/mL) and 0.96 µM (≈ 0.519 µg/mL), respectively. In [1], the inhibition at 100 µM was over 10%.

For the compound `O=C(NCc1ccccc1)C(c1ccc(O)c(O)c1)N(C(=O)Cc1ccccc1)C1CCCCC1` (stereo not shown) [Compound 5d, N-benzyl-2-(N-cyclohexyl-2-phenylacetamido)-2-(3,4-dihydroxyphenyl)acetamide], the MIC was determined as 0.92 µM (≈ 0.435 µg/mL) in the assay with E. coli R3 (ATCC 11775); 0.36 µM (≈ 0.17 µg/mL) in the assay with E. coli K12 (ATCC 25404); 1.45 µM (≈ 0.685 µg/mL) in the assay on E. coli R4 (ATCC 39543); 0.68 µM (≈ 0.321 µg/mL) in the assay with E. coli R2 (ATCC 39544); 0.68 µM (≈ 0.321 µg/mL) in the assay with E. cloacae (ATCC 49141); 0.74 µM (≈ 0.35 µg/mL) in [2]. Moreover, the MIC in assay [3] came to 0.63 µM (≈ 0.298 µg/mL); against S. aureus (ATCC 23235) it was 0.68 µM (≈ 0.321 µg/mL). In addition, the MBC against E. coli R3 (ATCC 11775) turned out to be 1.06 µM (≈ 0.501 µg/mL); in the assay on E. coli K12 (ATCC 25404) it was 0.74 µM (≈ 0.35 µg/mL); in the assay with E. coli R4 (ATCC 39543) it was 1.29 µM (≈ 0.61 µg/mL); in the assay with E. coli R2 (ATCC 39544), 1.07 µM (≈ 0.506 µg/mL); against E. cloacae (ATCC 49141), 0.76 µM (≈ 0.359 µg/mL); in assay [2], 0.75 µM (≈ 0.354 µg/mL). Further, the MBC (in [3]; in the assay on S. aureus (ATCC 23235)) was 0.74 µM (≈ 0.35 µg/mL) in each case. This compound showed an inhibition at 100 µM in [1] of over 10%.

For the compound `COc1ccc(CNC(=O)C(c2ccc(O)c(O)c2)N(C(=O)Cc2ccccc2)C2CCCCC2)cc1` (stereo not shown) [Compound 5e], the MIC in the assay on E. coli R3 (ATCC 11775) stood at 0.89 µM (≈ 0.447 µg/mL); against E. coli K12 (ATCC 25404) it was 0.3 µM (≈ 0.151 µg/mL); against E. coli R4 (ATCC 39543), 1.37 µM (≈ 0.689 µg/mL); against E. coli R2 (ATCC 39544) it was 0.71 µM (≈ 0.357 µg/mL); in the assay with E. cloacae (ATCC 49141), 0.64 µM (≈ 0.322 µg/mL); in assay [2], 0.72 µM (≈ 0.362 µg/mL). For the same compound, the MIC (in assay [3]; in the assay with S. aureus (ATCC 23235)) was 0.67 µM (≈ 0.337 µg/mL) throughout. The MBC in the assay with E. coli R3 (ATCC 11775) was found to be 1.15 µM (≈ 0.578 µg/mL); in the assay with E. coli K12 (ATCC 25404) it was 0.87 µM (≈ 0.437 µg/mL); against E. coli R4 (ATCC 39543), 1.29 µM (≈ 0.648 µg/mL); in the assay on E. coli R2 (ATCC 39544) it was 0.89 µM (≈ 0.447 µg/mL); against E. cloacae (ATCC 49141), 0.7 µM (≈ 0.352 µg/mL); in assay [2], 0.75 µM (≈ 0.377 µg/mL). Also, the MBC (in [3]; with S. aureus (ATCC 23235)) was 0.69 µM (≈ 0.347 µg/mL) in each case.

`O=C(NCc1ccc(F)cc1)C(c1ccc(O)c(O)c1)N(C(=O)Cc1ccccc1)C1CCCCC1` (stereo not shown) [Compound 5f]: the MIC was found to be 0.83 µM (≈ 0.407 µg/mL) in the assay with E. coli R3 (ATCC 11775); 0.22 µM (≈ 0.108 µg/mL) in the assay on E. coli K12 (ATCC 25404); 1.28 µM (≈ 0.628 µg/mL) in the assay on E. coli R4 (ATCC 39543); 0.65 µM (≈ 0.319 µg/mL) in the assay on E. coli R2 (ATCC 39544); 0.68 µM (≈ 0.334 µg/mL) against E. cloacae (ATCC 49141); 0.68 µM (≈ 0.334 µg/mL) in assay [2]. In addition, the MIC in [3] came to 0.64 µM (≈ 0.314 µg/mL); in the assay on S. aureus (ATCC 23235), 0.68 µM (≈ 0.334 µg/mL). The MBC against E. coli R3 (ATCC 11775) worked out at 1.18 µM (≈ 0.579 µg/mL); with E. coli K12 (ATCC 25404), 0.61 µM (≈ 0.299 µg/mL); against E. coli R4 (ATCC 39543), 1.3 µM (≈ 0.638 µg/mL); with E. coli R2 (ATCC 39544), 0.75 µM (≈ 0.368 µg/mL); in the assay with E. cloacae (ATCC 49141) it was 0.73 µM (≈ 0.358 µg/mL); in [2], 0.71 µM (≈ 0.348 µg/mL). The figures for the MBC (in assay [3]; with S. aureus (ATCC 23235)) were 0.69 µM (≈ 0.338 µg/mL) and 0.71 µM (≈ 0.348 µg/mL), respectively. This compound had an inhibition at 100 µM in [1] of under 10%.
